Measured values published in patent publication US11691949B2, “Quinoline sulfonamide compounds and their use as antibacterial agents” (OTAGO INNOVATION LIMITED, priority 2017, dated 2023).
Values after ≈ are worked out from the molar mass of the structure shown. Where a name gives a salt, the structure may show the parent alone. Read-outs that look alike come from different tables or passages of the source.

Tests used:
Format in all cases: cell-based
S. uberis ATCC 19436 = experiment: MIC by broth microdilution, S. uberis; details: Streptococcus uberis
In short: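 This broth microdilution assay used S. uberis ATCC 19436 in Todd Hewitt Broth, with zinc sulphate heptahydrate added where required to a final 50 μM. Inhibitor concentration ranges came from two-fold serial dilutions in 96-well flat bottom plates at 200 μl. Approximately 5×10^5 cfu/mL cells were incubated for 24 h at 37° C. and 200 rpm. Wells were then read at OD600 on a Varioskan Flash reader.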

S. aureus ATCC 6538 = experiment: MIC by broth microdilution, S. aureus; details: Staphylococcus aureus
In short: (§1)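 MBC measured as cell viability after compound challenge by Miles-Misra drop plating. MIC: broth microdilution at ~5×10^5 cfu/mL final (S. aureus: TSB, CAMHB; E. coli: LB, CAMHB; optional 50 μM zinc sulphate), 24 h at 37° C, 200 rpm, lowest concentration without growth by OD600; biological triplicate.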

E. coli ATCC 10596 = experiment: MIC by broth microdilution, E. coli; details: Escherichia coli
In short: as §1

[1] = ATCC19436, No Zinc, read-out: S. uberis ATCC 19436 MIC
[2] = ATCC19436, Zinc (50 μM), read-out: S. uberis ATCC 19436 MIC
[3] = ATCC6538, No Zinc, read-out: S. aureus ATCC 6538 MIC
[4] = ATCC6538, Zinc (50 μM), read-out: S. aureus ATCC 6538 MIC
[5] = ATCC 10536 / ATCC 10596, No Zinc, read-out: E. coli ATCC 10536 MIC
[6] = ATCC 10536 / ATCC 10596, Zinc (50 μM), read-out: E. coli ATCC 10536 MIC
[7] = ATCC19436, read-out: S. uberis ATCC 19436 MIC, No Zinc
[8] = ATCC19436, read-out: S. uberis ATCC 19436 MIC, Zinc (50 μM)
[9] = ATCC6538, read-out: S. aureus ATCC 6538 MIC, No Zinc
[10] = ATCC6538, read-out: S. aureus ATCC 6538 MIC, Zinc (50 μM)
[11] = ATCC 10536 / ATCC 10596, read-out: E. coli ATCC 10536 MIC, No Zinc
[12] = ATCC 10536 / ATCC 10596, read-out: E. coli ATCC 10536 MIC, Zinc (50 μM)

| Structure (SMILES) | MIC (S. uberis ATCC 19436; [1]) | MIC (S. uberis ATCC 19436; [2]) | MIC (S. aureus ATCC 6538; [3]) | MIC (S. aureus ATCC 6538; [4]) | MIC (E. coli ATCC 10596; [5]) | MIC (E. coli ATCC 10596; [6]) | MIC (S. uberis ATCC 19436; [7]) | MIC (S. uberis ATCC 19436; [8]) | MIC (S. aureus ATCC 6538; [9]) | MIC (S. aureus ATCC 6538; [10]) | MIC (E. coli ATCC 10596; [11]) | MIC (E. coli ATCC 10596; [12]) |
| --- | --- | --- | --- | --- | --- | --- | --- | --- | --- | --- | --- | --- |
| O=S(=O)(Nc1cccc2ccc(CNC3CCCCC3)nc12)c1ccc(C(F)(F)F)cc1 [ZDR405, N-(2-((Cyclohexylamino)methyl)quinolin-8-yl)-4-(trifluoromethyl)benzenesulfonamide] | 16 µg/mL (≈ 34.5 µM) | 0.125 µg/mL (≈ 0.27 µM) | 64 µg/mL (≈ 138 µM) | 128 µg/mL (≈ 276 µM) | 128 µg/mL (≈ 276 µM) | > 256 µg/mL | – | – | – | – | – | – |
| CCCCS(=O)(=O)Nc1cccc2ccc(CN(C)C)nc12 [ZDR321, N-(2-((Dimethylamino)methyl)quinolin-8-yl)butane-1-sulfonamide] | 256 µg/mL (≈ 796 µM) | 0.25 µg/mL (≈ 0.778 µM) | > 256 µg/mL | 128 µg/mL (≈ 398 µM) | > 256 µg/mL | > 256 µg/mL | – | – | – | – | – | – |
| COCCNCc1ccc2cccc(NS(=O)(=O)c3ccc(C(F)(F)F)cc3)c2n1 [ZDR133, N-(2-(((2-Methoxyethyl)amino)methyl)quinolin-8-yl)-4-(trifluoromethyl)benzenesulfonamide] | 64 µg/mL (≈ 146 µM) | 0.25 µg/mL (≈ 0.569 µM) | 64 µg/mL (≈ 146 µM) | 256 µg/mL (≈ 583 µM) | > 256 µg/mL | 256 µg/mL (≈ 583 µM) | – | – | – | – | – | – |
| O=S(=O)(Nc1cccc2ccc(CNCc3ccncc3)nc12)c1ccc(C(F)(F)F)cc1 [ZDR110, N-(2-(((Pyridin-4-ylmethyl)amino)methyl)quinolin-8-yl)-4-(trifluoromethyl)benzenesulfonamide] | > 256 µg/mL | 4 µg/mL (≈ 8.47 µM) | > 256 µg/mL | > 256 µg/mL | > 256 µg/mL | > 256 µg/mL | – | – | – | – | – | – |
| O=C(CNCc1ccc2cccc(NS(=O)(=O)c3ccc(C(F)(F)F)cc3)c2n1)NO [ZDR267, N-hydroxy-2-(((8-((4-(trifluoromethyl)phenyl)sulfonamido)quinolin-2-yl)methyl)amino)acetamide trifluoroacetate] | – | – | – | – | – | – | 256 µg/mL | 256 µg/mL | 256 µg/mL | 128 µg/mL | > 256 µg/mL | > 256 µg/mL |
| CN(C)Cc1ccc2cccc(NS(=O)(=O)c3ccc([N+](=O)[O-])cc3)c2n1 [ZDR067, N-(2-((Dimethylamino)methyl)quinolin-8-yl)-4-nitrobenzenesulfonamide] | 128 µg/mL (≈ 331 µM) | 0.125 µg/mL (≈ 0.323 µM) | 128 µg/mL (≈ 331 µM) | 256 µg/mL (≈ 662 µM) | > 256 µg/mL | > 256 µg/mL | – | – | – | – | – | – |
| CN(C)CCNCc1ccc2cccc(NS(=O)(=O)c3ccc(C(F)(F)F)cc3)c2n1 [ZDR030, N-(2-(((2-(Dimethylamino)ethyl)amino)methyl)quinolin-8-yl)-4-(trifluoromethyl)benzenesulfonamide] | 16 µg/mL (≈ 35.4 µM) | 1 µg/mL (≈ 2.21 µM) | 16 µg/mL (≈ 35.4 µM) | 16 µg/mL (≈ 35.4 µM) | 128 µg/mL (≈ 283 µM) | ≥ 256 µg/mL | – | – | – | – | – | – |
| Cc1cc(CS(=O)(=O)Nc2cccc3ccc(CN(C)C)nc23)no1 [ZDR501, N-(2-((Dimethylamino)methyl)quinolin-8-yl)-1-(5-methylisoxazol-3-yl)methanesulfonamide] | > 256 µg/mL | 0.25 µg/mL (≈ 0.694 µM) | 256 µg/mL (≈ 710 µM) | > 256 µg/mL | > 256 µg/mL | > 256 µg/mL | – | – | – | – | – | – |
| O=S(=O)(Nc1cccc2ccc(CNC3CC3)nc12)c1ccc(C(F)(F)F)cc1 [ZDR086, N-(2-((Cyclopropylamino)methyl)quinolin-8-yl)-4-(trifluoromethyl)benzenesulfonamide] | 64 µg/mL (≈ 152 µM) | 0.25 µg/mL (≈ 0.593 µM) | 64 µg/mL (≈ 152 µM) | > 256 µg/mL | 128 µg/mL (≈ 304 µM) | 256 µg/mL (≈ 607 µM) | – | – | – | – | – | – |
| CN(Cc1ccc2cccc(NS(=O)(=O)c3ccc(C(F)(F)F)cc3)c2n1)Cc1ccc2cccc(NS(=O)(=O)c3ccc(C(F)(F)F)cc3)c2n1 [ZDR037, N,N′-(((Methylazanediyl)bis(methylene))bis(quinoline-2,8-diyl))bis(4-(trifluoromethyl)benzenesulfonamide)] | > 256 µg/mL | 2 µg/mL (≈ 2.63 µM) | > 256 µg/mL | > 256 µg/mL | > 256 µg/mL | > 256 µg/mL | – | – | – | – | – | – |
| CN(C)Cc1ccc2cccc(NS(=O)(=O)c3ccc(C(N)=O)cc3)c2n1 [ZDR073, 4-(N-(2-((Dimethylamino)methyl)quinolin-8-yl)sulfamoyl)benzamide] | > 256 µg/mL | 8 µg/mL (≈ 20.8 µM) | > 256 µg/mL | > 256 µg/mL | > 256 µg/mL | > 256 µg/mL | – | – | – | – | – | – |
| CN(C)Cc1ccc2cccc(NS(=O)(=O)c3cccnc3)c2n1 [ZDR328, N-(2-((Dimethylamino)methyl)quinolin-8-yl)pyridine-3-sulfonamide] | > 256 µg/mL | 1 µg/mL (≈ 2.92 µM) | > 256 µg/mL | > 256 µg/mL | > 256 µg/mL | > 256 µg/mL | – | – | – | – | – | – |
| CO/N=C/c1ccc2cccc(NS(=O)(=O)c3ccc(C(F)(F)F)cc3)c2n1 [ZDR126, (E)-N-(2-((Methoxyimino)methyl)quinolin-8-yl)-4-(trifluoromethyl)benzenesulfonamide] | > 256 µg/mL | 0.125 µg/mL (≈ 0.305 µM) | > 256 µg/mL | > 256 µg/mL | > 256 µg/mL | > 256 µg/mL | – | – | – | – | – | – |
| O=S(=O)(Nc1cccc2ccc(CNCCO)nc12)c1ccc(C(F)(F)F)cc1 [ZDR031, N-(2-(((2-Hydroxyethyl)amino)methyl)quinolin-8-yl)-4-(trifluoromethyl)benzenesulfonamide] | 16 µg/mL (≈ 37.6 µM) | 0.5 µg/mL (≈ 1.18 µM) | 32 µg/mL (≈ 75.2 µM) | 32 µg/mL (≈ 75.2 µM) | ≥ 256 µg/mL | > 256 µg/mL | – | – | – | – | – | – |
| O=S(=O)(Nc1cccc2ccc(CNCCF)nc12)c1ccc(C(F)(F)F)cc1 [ZDR099, N-(2-(((2-Fluoroethyl)amino)methyl)quinolin-8-yl)-4-(trifluoromethyl)benzenesulfonamide] | 64 µg/mL (≈ 150 µM) | 0.25 µg/mL (≈ 0.585 µM) | 64 µg/mL (≈ 150 µM) | > 256 µg/mL | > 256 µg/mL | 256 µg/mL (≈ 599 µM) | – | – | – | – | – | – |
| CN(C)Cc1ccc2cccc(NS(=O)(=O)c3ccccc3Br)c2n1 [ZDR202, 2-Bromo-N-(2-((dimethylamino)methyl)quinolin-8-yl)benzenesulfonamide] | 256 µg/mL (≈ 609 µM) | 0.125 µg/mL (≈ 0.297 µM) | 256 µg/mL (≈ 609 µM) | > 256 µg/mL | > 256 µg/mL | > 256 µg/mL | – | – | – | – | – | – |
| NC(=O)CNCc1ccc2cccc(NS(=O)(=O)c3ccc(C(F)(F)F)cc3)c2n1 [ZDR266, 2-(((8-((4-(Trifluoromethyl)phenyl)sulfonamido)quinolin-2-yl)methyl)amino)acetamide trifluoroacetate] | – | – | – | – | – | – | 16 µg/mL | 16 µg/mL | 64 µg/mL | 32 µg/mL | 128 µg/mL | 256 µg/mL |
| CN(C)Cc1ccc2cccc(NS(=O)(=O)c3ccc(C#N)cc3)c2n1 [ZDR068, 4-Cyano-N-(2-((dimethylamino)methyl)quinolin-8-yl)benzenesulfonamide] | > 256 µg/mL | 1 µg/mL (≈ 2.73 µM) | > 256 µg/mL | > 256 µg/mL | > 256 µg/mL | > 256 µg/mL | – | – | – | – | – | – |
| C=CCNCc1ccc2cccc(NS(=O)(=O)c3ccc(C(F)(F)F)cc3)c2n1 [ZDR097, N-(2-((Allylamino)methyl)quinolin-8-yl)-4-(trifluoromethyl)benzenesulfonamide] | > 256 µg/mL | 0.0625 µg/mL (≈ 0.148 µM) | > 256 µg/mL | > 256 µg/mL | > 256 µg/mL | 256 µg/mL (≈ 607 µM) | – | – | – | – | – | – |
